One experiment deals with ThP1 cells. Kind of experiment: H2O2 production by P. acnes-stimulated ThP1. In kind it is cell-based, human. Conditions: small peptides 2.5 to 20 μM. The procedure: (§1) For experiences of stimulation with P. acnes, cells were incubated with the P. acnes suspension adjusted at the appropriate concentration, pre-treated for 1 h at 37° C. or not with fibrinogen recombinant peptides Fg1 and Fg2 at the concentrations 0.87, 1.75, 3.5 or 7 μM for the desired period of time at 37° C. in 5% CO2.
(§2) All cells lines (5·10^4 to 10^5 cells/well) were seeded in 96-well plates (Corning Costar, Brumath, France) and treated as previously described. After stimulation, cells were washed three times in PBS and incubated with 100 μl per wells of 5 μM DHE (for determination of O2^●−) or 5 μM H2-DCFDA (for determination of H2O2) for 30 min as described previously and fluorescence intensity was recorded every hour over a period of 5 h. Fluorescence excitation/emission maxima were for DHE: 480/610 nm and for H2-DCFDA: 507/525 nm. At the end of the experiment, the number of adherent cells was evaluated by the crystal violet assay as described below. O2^●−, and H2O2 were assayed by spectrofluorimetry on a Fusion spectrofluorimeter (PackardBell, Paris, France). Levels of ROS were calculated in each sample as follows: reactive oxygen species rate (arbitrary units/min/10^6 cells)=(fluorescence intensity [arbitrary units] at T5h—fluorescence intensity [arbitrary units] at To/300 minutes/number of adherent cells as measured by the crystal violet assay, and were expressed as arbitrary unit (A.U.).
(§3) To assess the efficacy of Fg1 recombinant peptide, the production of O2^∘− and H2O2 by HaCaT cells NHDK, THP-1, MRC5 and HDF stimulated by pretreated P. acnes strains 6919, RON and PIE was measured. The amount of ROS produced was compared to that produced by the stimulated cells with untreated bacteria. Production baseline was obtained by measuring ROS on unstimulated cells. The production of IL-1ß, IL-8, IL-12 and TNF-α was also measured in all conditions cited above. The measurement of the production of ROS is performed by spectrofluorimetry in the presence of specific fluorochromes directly on the monolayer cell. Measurement of cytokine production was performed in parallel on the cell culture supernatant.
(§4) Two sets of experiments were implemented: 1) The cells were stimulated (18 h at 37° C.) by P. acnes strains previously pretreated with Fg1 and Fg2 peptides at the final concentrations ranging from 0.87 to 7 μM for 1 h at 37° C.; and 2) The cells were pretreated first with Fg1 and Fg2 peptides at the final concentrations ranging from 0.87 to 7 μM for 24 h at 37° C. and stimulated (18 h at 37° C.) by P. acnes strains.
(§5) To assess the efficacy of the small Fg1-related peptide, the production of H2O2 by several cell lines (HaCaT, NHDK, THP-1, MRC5 and HDF) stimulated by three P. acnes strains 6919, RON and PIE was measured, in presence or not with the small peptides. The amount of H2O2 produced is compared to that produced by the stimulated cells with untreated bacteria. Production baseline is obtained by measuring H2O2 on unstimulated cells. The measurement of the production of H2O2 is performed by spectrofluorimetry in the presence of specific fluorochromes directly on the monolayer cell.
(§6) Two sets of experiments have been implemented: • I) The cells are stimulated (18 h at 37° C.) by P. acnes strains previously pretreated with Fg1.1, Fg1.2, Fg1.3, Fg1.4, and Fg1.5 small peptides at the final concentrations ranging from 2.5 to 20 μM for 1 h at 37° C.; • II) The cells are pretreated first with the five small peptides at the final concentrations ranging from 2.5 to 20 μM for 24 h at 37° C. and stimulated (18 h at 37° C.) by P. acnes strains.

Another experiment relates to HaCaT cells. In words: H2O2 production by P. acnes-stimulated HaCaT (spectrofluorimetry, H2-DCFDA). In kind it is cell-based, human. Conditions: small peptides 2.5 to 20 μM. On the procedure:
as §1, §2, §3, §4, §5, §6

A further experiment has as its system MRC5 cells. In words: H2O2 production by P. acnes-stimulated MRC5. The experiment is classed as cell-based, human. Conditions: small peptides 2.5 to 20 μM.
The subject of experiment [1] is HaCaT, NHDK, THP-1, MRC5 and HDF. In words: H2O2 production by cells stimulated with P. acnes, overall statement for the five cell lines. In kind it is cell-based, human. To be noted: pretreatment of P. acnes strains with small peptide 2.5 to 20 μM; five cell lines and three strains tested. The procedure: FIG. 17: Dose-dependent inhibition of H2O2 production by fibroblast pre-treated by small Fg1-generated peptides and stimulated by P. acnes. MRC5 cell were incubated for 24 h with small peptides Fg1.1 (light gray bar), Fg1.2 (horizontal line bar), Fg1.3 (hatched bar), Fg1.4 (dark gray bar), Fg1.5 (dotted bar) at concentrations ranging from 2.5 to 20 μM. Measurement of hydrogen peroxide production was realized by spectrofluorometry as described in Materials and Methods. Controls experiments were done with unstimulated MRC5 cell (white bar) and MRC5 stimulated with P. acnes (black bar). Data are means±S.D. of three separate experiments. Statistical significance is indicated by * (P<0.05), ** (P<0.01), *** (P<0.001), and **** (P<0.0001), respectively.
as §2, §5, §6
FIG. 17 corresponds to the results obtained with the P. acnes RON strain on the fibroblast MRCS cell line and are representative of the results obtained with all P. acnes and cells lines tested (Table 6).

The test system of another experiment is HDF cells. In words: H2O2 production by P. acnes-stimulated HDF. The experiment is classed as cell-based, human. Conditions: cells first pretreated, small peptides 2.5 to 20 μM. On the procedure: as §1, §2, §3, §4, §5, §6
Another experiment relates to NHDK cells. Kind of experiment: H2O2 production by P. acnes-stimulated NHDK. In kind it is cell-based, human. To be noted: cells first pretreated, small peptides 2.5 to 20 μM. The procedure:
as §1, §2, §3, §4, §5, §6

The test system of experiment [2] is P. acnes surface proteins. Kind of experiment: Binding of biotinylated ECM ligands to immobilized P. acnes surface proteins. Further details: species or system Propionibacterium acnes. To be noted: 25 μg/ml of protein immobilized per well; various quantity of biotinylated Fg and Collagen I. On the procedure:
FIG. 2: Binding of P. acnes surface protein to purified human fibrinogen. (A) P. acnes surface proteins (0.8 to 50 μg/ml) were immobilized onto a 96-well polystyrene plate and probed with biotinylated fibrinogen (0.1 μg/ml) for 2 h at room temperature. (B) P. acnes surface proteins (25 μg/ml) were immobilized onto a 96-well polystyrene plate and probed with various concentrations of biotinylated fibrinogen ranging from 0.1 to 16 μg/ml for 2 h at room temperature. Bound biotinylated fibrinogen were detected with HRP-streptavidine as described in Materials and Methods.
To characterize the interaction between P. acnes and ligands, we used biotinylated molecules in quantitative and qualitative assays. In a first set of assays, ECM ligands (fibrinogen, collagens I, IV, VI and VIII) were used as labelled proteins with biotin. In a second set of assays, P. acnes surface proteins (total extract and purified Pfg) were biotinylated. For quantitative analysis, unlabeled protein were diluted into 50 mM carbonate-bicarbonate, pH 9.6 buffer to yield a protein concentration ranging from 0.01 to 50 μg/ml, and then immobilized to 96-well polystyrene plates at 4° C. overnight. […] After washing, bound peroxidase was detected using the chromogenic peroxidase substrate ABTS. […] Binding activity was detected by incubating the membranes with 20 ml of PBT containing biotinylated proteins (0.1 μg/ml) for 2 h at room temperature followed by three washes with PBT. Bound biotinylated proteins were detected by incubating the membrane with peroxidase conjugated to streptavidin (0.5 μg/ml in PBT) for 1 h at room temperature. After washing, bound peroxidase activity was detected using 3,3′-diaminobenzidine in the presence of CoCl2 and H2O2 (Harlow and Lane, 1988).
In order to identify P. acnes surface protein recognized by ECM ligands, we used the most commons ECM proteins recognize by skin related bacteria like collagens and fibrinogen. […] To identify surface proteins, P. acnes total heat protein extracts were electrophoretically separated and detected by silver staining (FIG. 1B). […]

Setting [3] is: P. acnes 6919, set I, bacteria first pretreated.
Setting [4] is: P. acnes 6919, set II, cells first pretreated.
Setting [5] is: P. acnes PIE, set I, bacteria first pretreated.
Setting [6] is: P. acnes PIE, set II, cells first pretreated.
The mark [7] stands for this setting: P. acnes RON, set I, bacteria first pretreated.
Where [8] appears, read: P. acnes RON, set II, cells first pretreated.

As for “LLLCVFLVKSQGVNDNEEGFFSARGHRPLD (fragment Fg1.4) [small peptide generated from Fg1, overlapping Fg1.1 and Fg1.2]”, the “Inhibition of Hydrogen peroxide (H2O2) production” value (“Inhibition of Hydrogen peroxide” for short) in the experiment on ThP1 cells (setting [3]), with ThP1 cells (setting [4]), with ThP1 cells (setting [5]), in the experiment with ThP1 cells (setting [6]), in the experiment on ThP1 cells (setting [7]) and with ThP1 cells (setting [8]) was “pos” in each case. The “Inhibition of Hydrogen peroxide” value with HaCaT cells (setting [3]), in the experiment on HaCaT cells (setting [4]), in the experiment on HaCaT cells (setting [5]), in the experiment with HaCaT cells (setting [6]), in the experiment on HaCaT cells (setting [7]) and with MRC5 cells (setting [3]) was “pos” each time. Further, the “Inhibition of Hydrogen peroxide” value was “pos” in the experiment with MRC5 cells (setting [4]); “pos” in the experiment with MRC5 cells (setting [5]); “pos” with MRC5 cells (setting [6]); “pos” with MRC5 cells (setting [7]); “pos” in the experiment with HDF cells (P. acnes 6919, set II); “pos” in the experiment on HDF cells (P. acnes PIE, set II). For the same substance, the “Inhibition of Hydrogen peroxide” value with HDF cells (P. acnes RON, set II) was “pos”; in the experiment with NHDK cells (P. acnes 6919, set II), “pos”; in the experiment with NHDK cells (P. acnes PIE, set II) it was “pos”; in the experiment on NHDK cells (P. acnes RON, set II) it was “pos”. Moreover, the “Inhibition of H2O2 production” value in experiment [1] is “inhibits the production of H2O2 in a dose-dependent manner”.
Take “MKRMVSWSFHKLKTMKHLLLLLLCVFLVKSQGVND (fragment Fg1.1) [small peptide generated from Fg1]”: the “Inhibition of Hydrogen peroxide” value in the experiment with ThP1 cells (setting [3]), in the experiment with ThP1 cells (setting [4]), in the experiment on ThP1 cells (setting [5]), with ThP1 cells (setting [6]), in the experiment with ThP1 cells (setting [7]) and in the experiment with ThP1 cells (setting [8]) was “pos” throughout. Moreover, the “Inhibition of Hydrogen peroxide” value in the experiment on HaCaT cells (setting [3]), in the experiment on HaCaT cells (setting [4]), in the experiment on HaCaT cells (setting [5]), in the experiment with HaCaT cells (setting [6]), in the experiment on HaCaT cells (setting [7]) and with MRC5 cells (setting [3]) was “pos” in each case. Moreover, the “Inhibition of Hydrogen peroxide” value in the experiment on MRC5 cells (setting [4]) is listed as “pos”; in the experiment with MRC5 cells (setting [5]) it was “pos”; with MRC5 cells (setting [6]), “pos”; in the experiment with MRC5 cells (setting [7]), “pos”; in the experiment with HDF cells (P. acnes 6919, set II) it was “pos”; in the experiment with HDF cells (P. acnes PIE, set II) it was “pos”. Besides, the “Inhibition of Hydrogen peroxide” value in the experiment with HDF cells (P. acnes RON, set II) is “pos”; in the experiment on NHDK cells (P. acnes 6919, set II), “pos”; in the experiment with NHDK cells (P. acnes PIE, set II) it was “pos”; in the experiment on NHDK cells (P. acnes RON, set II), “pos”. For the same substance, the “Inhibition of H2O2 production” value in experiment [1] is reported as “inhibits the production of H2O2 in a dose-dependent manner”.
“collagen I: commercial ECM ligand, biotinylated, tested for binding to P. acnes surface proteins [reference compound]”: in experiment [2], the “Binding activity of biotinylated ligand to immobilized P. acnes total surface protein” value was “No binding activity”.

The values are drawn from patent US10323078B2, “Isolated peptides and fragments thereof from fibrinogen for use as drugs, particularly in skin inflammatory diseases” (Universite Paris Descartes, priority 2015, dated 2019).
